We go through seven molecules from US11052087B2, “Anti-HIV compounds” (priority 2018, dated 2021).

Broadly, the EC50 is the concentration giving half of the maximal effect. The solubility is the dissolved amount per volume that the medium holds.

Data set [1] relates to HIV-1 (IIIB) in MT-4 cells. The data set can be described thus: MT-4 HIV Assay. Format: cell-based. The method, then: Compounds were tested in a high-throughput 384-well assay format for their ability to inhibit the replication of HIV-1 (IIIB) in MT-4 cells. Compounds were serially diluted (1:3) in DMSO on 384-well polypropylene plates and further diluted 200-fold into complete RPMI media (10% FBS, 1% P/S) using the Biotek Micro Flow and Agilent ECHO acoustic dispenser. Each plate contained up to 8 test compounds, with negative (No Drug Control) and 5 μM AZT positive controls. MT-4 cells were pre-infected with 10 μL of either RPMI (mock-infected) or a fresh 1:250 dilution of an HIV-1 (IIIB) concentrated virus stock. Infected and uninfected MT-4 cells were further diluted in complete RPMI media and added to each plate using a Micro Flow dispenser. After 5 days incubation in a humidified and temperature controlled incubator (37° C.), Cell Titer Glo (Promega) was added to the assay plates to quantify the amount of luciferase. EC50 values were defined as the compound concentration that causes a 50% decrease in luminescence signal, and were calculated using a sigmoidal dose-response model to generate curve fits.

Data set [2] can be described thus: Kinetic Solubility Analysis (CLND). Conditions: 26 °C, kinetic from dmso stock. Format: physicochemical. The method, then:
Kinetic Solubility Analysis (CLND) Buffer Preparation:
0.1N HCl: Hydrochloric acid, 0.1N standardized solution.
1×PBS, 7.4: Phosphate Buffered Saline solution 10×, PBS 50 mL was added to approximately 450 mL HPLC grade H2O. The volume of the solution was then adjusted to 500 mL for a total dilution factor of 1:10 and a final PBS concentration of IX.
Kinetic Solubility from DMSO Stocks:
The final DMSO concentration is 1.0% and maximum theoretical compound concentration is 100 μM (assuming stock concentration of 10 mM). The filter plate was sealed. […] The collection plate was sealed for analysis. Filtrates were injected into the nitrogen detector for quantification.
The equimolar nitrogen response of the detector was calibrated using standards which spanned the dynamic range of the instrument from […] nitrogen. The filtrates were quantified with respect to this calibration curve. The calculated solubility values were corrected for background nitrogen present in the DMSO and the media used to prepare the samples.

[3] abbreviates: Human immunodeficiency virus 1, MT4, 120 h, HIV-1 (IIIB) replication in MT-4 cells, 5 days incubation, Cell Titer Glo, read-out: EC50.
[4] abbreviates: 0.1N HCl, pH 1, simulated gastric fluid, read-out: Solubility, HCl, pH 1.0, RT.
[5] abbreviates: PBS, pH 7.4, aqueous buffer, read-out: Solubility, PBS, pH 7.4, RT.

≈ marks a conversion by molar mass, not a printed value. Read-outs that look alike come from different tables or passages of the source.

In the case of `COC(=O)N[C@H](C(=O)N[C@@H](Cc1ccc(C#Cc2cnc(N3CC4CCC(C3)N4C3COC3)nc2)cc1)[C@H](CN(Cc1c(F)cc(-c2ccn(C(F)F)n2)cc1F)NC(=O)[C@@H](NC(=O)OC)C(C)(C)C(F)(F)F)OC(C)=O)C(C)(C)C(F)(F)F` [Example 3, (5S,10S,11S,14S)-8-(4-(1-(difluoromethyl)-1H-pyrazol-3-yl)-2,6-difluorobenzyl)-11-(4-((2-(8-(oxetan-3-yl)-3,8-diazabicyclo[3.2.1]octan-3-yl)pyrimidin-5-yl)ethynyl)benzyl)-3,6,13,16-tetraoxo-5,14-bis(1,1,1-trifluoro-2-methylpropan-2-yl)-2,17-dioxa-4,7,8,12,15-pentaazaoctadecan-10-yl acetate], the concentration for a half-maximal effect (EC50) in data set [1] (setting [3]) turned out to be 0.603 µM. Besides, the solubility at 24 h in data set [2] (setting [4]) was 25.2 µM; in data set [2] (setting [5]), below 1 µM.
The matching figures for `COC(=O)N[C@H](C(=O)N[C@@H](Cc1ccc(C#Cc2cnc(N3CC4CCC(C3)N4C3COC3)nc2)cc1)[C@H](CN(Cc1c(F)cc(-c2ccn(C(F)F)n2)cc1F)NC(=O)[C@@H](NC(=O)OC)C(C)(C)C(F)(F)F)OC(=O)[C@H](C(C)C)N(C)C)C(C)(C)C(F)(F)F` [Example 4, (2S,3S)-1-(1-(4-(1-(difluoromethyl)-1H-pyrazol-3-yl)-2,6-difluorobenzyl)-2-((S)-4,4,4-trifluoro-2-((methoxycarbonyl)amino)-3,3-dimethylbutanoyl)hydrazinyl)-4-(4-((2-(8-(oxetan-3-yl)-3,8-diazabicyclo[3.2.1]octan-3-yl)pyrimidin-5-yl)ethynyl)phenyl)-3-((S)-4,4,4-trifluoro-2-((methoxycarbonyl)amino)-3,3-dimethylbutanamido)butan-2-yl dimethyl-L-valinate]: 5.71 µM, 99.2 µM (≈ 127 µg/mL) and below 1 µM.
As for `COC(=O)N[C@H](C(=O)N[C@@H](Cc1ccc(C#Cc2cnc(N3CC4CCC(C3)N4C3COC3)nc2)cc1)[C@H](CN(Cc1c(F)cc(-c2ccn(C(F)F)n2)cc1F)NC(=O)[C@@H](NC(=O)OC)C(C)(C)C(F)(F)F)OC(=O)CCC[N+](C)(C)C)C(C)(C)C(F)(F)F` [Example 7, (5S,10S)-8-(4-(1-(difluoromethyl)-1H-pyrazol-3-yl)-2,6-difluorobenzyl)-N,N,N-trimethyl-10-((1 S)-2-(4-((2-(8-(oxetan-3-yl)-3,8-diazabicyclo[3.2.1]octan-3-yl)pyrimidin-5-yl)ethynyl)phenyl)-1-((S)-4,4,4-trifluoro-2-((methoxycarbonyl)amino)-3,3-dimethylbutanamido)ethyl)-3,6,2-trioxo-5-(1,1,1-trifluoro-2-methylpropan-2-yl)-2,11-dioxa-4,7,8-triazapentadecan-15-aminium 2,2,2-trifluoroacetate], the 50% effective concentration (EC50) in data set [1] (Human immunodeficiency virus 1, IIIB, MT4, 120 h) came out at 0.247 µM.
As to `COC(=O)N[C@H](C(=O)N[C@@H](Cc1ccc(C#Cc2cnc(N3CC4CCC(C3)N4C3COC3)nc2)cc1)[C@H](CN(Cc1c(F)cc(-c2ccn(C(F)F)n2)cc1F)NC(=O)[C@@H](NC(=O)OC)C(C)(C)C(F)(F)F)OC(=O)[C@@H](N)C(C)C)C(C)(C)C(F)(F)F` [Example 8, (2S,3S)-1-(1-(4-(1-(difluoromethyl)-1H-pyrazol-3-yl)-2,6-difluorobenzyl)-2-((S)-4,4,4-trifluoro-2-((methoxycarbonyl)amino)-3,3-dimethylbutanoyl)hydrazinyl)-4-(4-((2-(8-(oxetan-3-yl)-3,8-diazabicyclo[3.2.1]octan-3-yl)pyrimidin-5-yl)ethynyl)phenyl)-3-((S)-4,4,4-trifluoro-2-((methoxycarbonyl)amino)-3,3-dimethylbutanamido)butan-2-yl L-valinate], in data set [1] (setting [3]), the EC50 amounted to 0.102 µM. The solubility at 24 h in data set [2] (setting [4]) was 90 µM (≈ 113 µg/mL); in data set [2] (setting [5]) it was below 1 µM.
The matching figures for `COC(=O)N[C@H](C(=O)N[C@@H](Cc1ccc(C#Cc2cnc(N3CC4CCC(C3)N4C3COC3)nc2)cc1)[C@H](CN(Cc1c(F)cc(-c2ccn(C(F)F)n2)cc1F)NC(=O)[C@@H](NC(=O)OC)C(C)(C)C(F)(F)F)OC(=O)[C@@H](N)CCCCN)C(C)(C)C(F)(F)F` [Example 9, (2S,3S)-1-(1-(4-(1-(difluoromethyl)-1H-pyrazol-3-yl)-2,6-difluorobenzyl)-2-((S)-4,4,4-trifluoro-2-((methoxycarbonyl)amino)-3,3-dimethylbutanoyl)hydrazinyl)-4-(4-((2-(8-(oxetan-3-yl)-3,8-diazabicyclo[3.2.1]octan-3-yl)pyrimidin-5-yl)ethynyl)phenyl)-3-((S)-4,4,4-trifluoro-2-((methoxycarbonyl)amino)-3,3-dimethylbutanamido)butan-2-yl L-lysinate]: 0.0206 µM, 86.8 µM (≈ 111 µg/mL) and 6.8 µM (≈ 8.73 µg/mL).
Regarding `COC(=O)N[C@H](C(=O)N[C@@H](Cc1ccc(C#Cc2cnc(N3CC4CCC(C3)N4C3COC3)nc2)cc1)[C@H](CN(Cc1c(F)cc(-c2ccn(C(F)F)n2)cc1F)NC(=O)[C@@H](NC(=O)OC)C(C)(C)C(F)(F)F)OC(=O)CN(C)C)C(C)(C)C(F)(F)F` [Example 10, (2S,3S)-1-(1-(4-(1-(difluoromethyl)-1H-pyrazol-3-yl)-2,6-difluorobenzyl)-2-((S)-4,4,4-trifluoro-2-((methoxycarbonyl)amino)-3,3-dimethylbutanoyl)hydrazinyl)-4-(4-((2-(8-(oxetan-3-yl)-3,8-diazabicyclo[3.2.1]octan-3-yl)pyrimidin-5-yl)ethynyl)phenyl)-3-((S)-4,4,4-trifluoro-2-((methoxycarbonyl)amino)-3,3-dimethylbutanamido)butan-2-yl dimethylglycinate], the solubility at 24 h in data set [2] (setting [4]) is 79.3 µM (≈ 98.4 µg/mL); in data set [2] (setting [5]), below 1 µM.
On the same counts, the results for `COC(=O)N[C@H](C(=O)N[C@@H](Cc1ccc(C#Cc2ccc(N3CC4CCC(C3)N4C3COC3)nc2)cc1)[C@H](CN(Cc1c(F)cc(-c2ccn(C(F)F)n2)cc1F)NC(=O)[C@@H](NC(=O)OC)C(C)(C)C(F)(F)F)OC(=O)OCOP(=O)(O)O)C(C)(C)C(F)(F)F` [Example 13, methyl ((5S,10S,11S,14S)-8-(4-(1-(difluoromethyl)-1H-pyrazol-3-yl)-2,6-difluorobenzyl)-16,16,16-trifluoro-15,15-dimethyl-11-(4-((6-(8-(oxetan-3-yl)-3,8-diazabicyclo[3.2.1]octan-3-yl)pyridin-3-yl)ethynyl)benzyl)-3,6,13-trioxo-10-((((phosphonooxy)methoxy)carbonyl)oxy)-5-(1,1,1-trifluoro-2-methylpropan-2-yl)-2-oxa-4,7,8,12-tetraazahexadecan-14-yl)carbamate] are 67.4 µM (≈ 88.2 µg/mL) and below 1 µM.
